Data taken from ChEMBL document CHEMBL1135909, “Inhibition of protein-protein association by small molecules: approaches and progress” (J Med Chem, 2002).
Blank lines part the entries; values can stand above or below the compound they belong to.

Tests used:
[1] = biological target: Nitric oxide synthase, inducible (Homo sapiens, UniProt P35228); experiment: Binding against the partially purified human Inducible nitric oxide synthase
[2] = tested on: Rattus norvegicus; experiment: The compound was tested in vivo for suppressing LPS-stimulated plasma NOx production in rats; type: functional
[3] = Inhibitory activity
[4] = Inhibition of Interleukin-1 alpha binding to Interleukin-1 receptor
[5] = biological target: Apoptosis regulator Bcl-2 (Homo sapiens, UniProt P10415); experiment: Inhibitory activity against Bcl-2 functioning; type: functional
Chain of Apoptosis regulator Bcl-2 (P10415 whole entry): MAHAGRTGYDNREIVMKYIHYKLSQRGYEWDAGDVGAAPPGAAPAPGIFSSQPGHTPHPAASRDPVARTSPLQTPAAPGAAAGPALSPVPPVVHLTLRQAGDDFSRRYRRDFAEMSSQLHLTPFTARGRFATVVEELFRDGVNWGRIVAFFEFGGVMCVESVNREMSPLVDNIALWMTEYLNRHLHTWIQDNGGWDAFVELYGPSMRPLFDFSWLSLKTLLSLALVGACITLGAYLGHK

[6] = tested on: HL-60; experiment: Percent cell death of cultured HL60 human leukemia cells at dose of 50 uM; type: functional
[7] = biological target: T1, Growth factor receptor-bound protein 2 (Homo sapiens, UniProt P62993); experiment: Inhibition of Growth factor receptor bound protein 2 SH2-domain binding
[8] = biological target: T1, Growth factor receptor-bound protein 2; experiment: Inhibition of c-Met interaction with Grb2 SH2 domain in Okajima (human gastric carcinoma) cells at 30 nM; type: functional; settings: Stomach
[9] = biological target: Phosphodiesterase 1 (Homo sapiens, UniProt P54750+Q01064+Q14123); experiment: Inhibition of calmodulin-dependent PDE(3',5'-phosphodiesterase); type: functional
[10] = tested on: CHO; experiment: Inhibition of [125I]RANTES association with CCR5 expressed in CHO cells at 100 nM; type: functional, cell-based; settings: Cricetulus griseus
[11] = biological target: T2, Tumor necrosis factor receptor superfamily member 16 (Homo sapiens, UniProt P08138); experiment: Competitive binding against Nerve growth factor to p75-NGF receptor in PC12 cells; type: cell-based, PC-12
T2 sequence (P08138 whole entry): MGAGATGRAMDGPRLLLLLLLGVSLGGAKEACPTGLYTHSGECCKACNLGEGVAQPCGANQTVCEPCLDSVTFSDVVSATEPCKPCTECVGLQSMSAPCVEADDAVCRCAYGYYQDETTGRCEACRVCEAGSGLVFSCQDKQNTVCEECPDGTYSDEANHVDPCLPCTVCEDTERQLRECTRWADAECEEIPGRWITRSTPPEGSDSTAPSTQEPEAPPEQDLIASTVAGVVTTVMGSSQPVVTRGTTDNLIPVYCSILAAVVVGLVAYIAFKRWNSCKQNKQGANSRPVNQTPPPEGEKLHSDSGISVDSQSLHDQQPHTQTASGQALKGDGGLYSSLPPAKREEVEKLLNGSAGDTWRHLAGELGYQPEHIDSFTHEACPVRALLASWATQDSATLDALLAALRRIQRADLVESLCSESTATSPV

[12] = biological target: T3, High affinity nerve growth factor receptor (Homo sapiens, UniProt P04629); experiment: Inhibition of NGF-stimulated Trk A
T3 sequence (P04629 whole entry): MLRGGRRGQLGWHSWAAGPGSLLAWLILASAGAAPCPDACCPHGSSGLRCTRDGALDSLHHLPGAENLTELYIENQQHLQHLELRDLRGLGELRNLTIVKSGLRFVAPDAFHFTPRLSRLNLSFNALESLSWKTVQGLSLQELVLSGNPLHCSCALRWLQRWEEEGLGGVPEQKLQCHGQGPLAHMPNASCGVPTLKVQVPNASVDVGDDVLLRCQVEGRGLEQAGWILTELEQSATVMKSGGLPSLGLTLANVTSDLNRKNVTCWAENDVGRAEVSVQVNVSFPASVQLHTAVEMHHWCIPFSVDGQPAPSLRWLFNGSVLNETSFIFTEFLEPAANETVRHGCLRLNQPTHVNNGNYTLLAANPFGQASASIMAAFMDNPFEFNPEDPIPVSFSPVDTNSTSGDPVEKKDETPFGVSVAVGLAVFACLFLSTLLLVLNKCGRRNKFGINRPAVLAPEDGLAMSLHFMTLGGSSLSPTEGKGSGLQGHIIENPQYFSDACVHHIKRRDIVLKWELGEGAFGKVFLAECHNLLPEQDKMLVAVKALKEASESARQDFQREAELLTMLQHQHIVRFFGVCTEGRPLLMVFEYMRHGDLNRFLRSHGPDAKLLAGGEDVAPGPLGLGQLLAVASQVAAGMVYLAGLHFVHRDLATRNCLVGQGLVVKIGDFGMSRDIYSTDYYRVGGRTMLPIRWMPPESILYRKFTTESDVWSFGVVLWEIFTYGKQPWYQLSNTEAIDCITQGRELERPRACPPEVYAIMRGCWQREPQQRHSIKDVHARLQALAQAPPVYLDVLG

[13] = biological target: T3, High affinity nerve growth factor receptor; experiment: Inhibition of NGF-stimulated Trk A in PC12 cells; type: cell-based, PC-12
[14] = biological target: T4, Proto-oncogene tyrosine-protein kinase Src (Homo sapiens, UniProt P12931); experiment: Inhibition of Src protein tyrosine kinase
T4 sequence (P12931 2-536 limits assumed): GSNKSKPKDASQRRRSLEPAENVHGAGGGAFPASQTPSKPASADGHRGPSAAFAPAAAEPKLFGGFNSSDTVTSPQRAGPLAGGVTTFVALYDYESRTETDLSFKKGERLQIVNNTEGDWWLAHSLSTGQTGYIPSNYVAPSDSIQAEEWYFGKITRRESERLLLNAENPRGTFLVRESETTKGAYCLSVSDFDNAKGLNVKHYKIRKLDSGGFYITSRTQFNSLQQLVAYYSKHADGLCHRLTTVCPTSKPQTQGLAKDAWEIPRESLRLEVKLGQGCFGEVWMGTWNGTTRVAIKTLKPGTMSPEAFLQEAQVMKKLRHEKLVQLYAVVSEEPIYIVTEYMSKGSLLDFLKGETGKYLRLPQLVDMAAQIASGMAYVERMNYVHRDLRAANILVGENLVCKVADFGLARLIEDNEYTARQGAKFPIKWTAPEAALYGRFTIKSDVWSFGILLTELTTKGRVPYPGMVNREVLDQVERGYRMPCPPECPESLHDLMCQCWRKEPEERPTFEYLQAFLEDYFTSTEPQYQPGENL

[15] = species on record: Oryctolagus cuniculus; experiment: Inhibition of the absorption of dentine slices by rabbit osteoclasts; type: functional
[16] = species on record: Homo sapiens; experiment: cells
[17] = Selective inhibition of Src SH2 domain over ZAP-70 SH2 domain; type: functional
[18] = biological target: T4, Proto-oncogene tyrosine-protein kinase Src; experiment: Inhibition of binding to Src SH2 domain; type: functional
[19] = Inhibition of thyroid-hormone induced bone resorption; type: functional

Chain of Nitric oxide synthase, inducible (P35228 whole entry): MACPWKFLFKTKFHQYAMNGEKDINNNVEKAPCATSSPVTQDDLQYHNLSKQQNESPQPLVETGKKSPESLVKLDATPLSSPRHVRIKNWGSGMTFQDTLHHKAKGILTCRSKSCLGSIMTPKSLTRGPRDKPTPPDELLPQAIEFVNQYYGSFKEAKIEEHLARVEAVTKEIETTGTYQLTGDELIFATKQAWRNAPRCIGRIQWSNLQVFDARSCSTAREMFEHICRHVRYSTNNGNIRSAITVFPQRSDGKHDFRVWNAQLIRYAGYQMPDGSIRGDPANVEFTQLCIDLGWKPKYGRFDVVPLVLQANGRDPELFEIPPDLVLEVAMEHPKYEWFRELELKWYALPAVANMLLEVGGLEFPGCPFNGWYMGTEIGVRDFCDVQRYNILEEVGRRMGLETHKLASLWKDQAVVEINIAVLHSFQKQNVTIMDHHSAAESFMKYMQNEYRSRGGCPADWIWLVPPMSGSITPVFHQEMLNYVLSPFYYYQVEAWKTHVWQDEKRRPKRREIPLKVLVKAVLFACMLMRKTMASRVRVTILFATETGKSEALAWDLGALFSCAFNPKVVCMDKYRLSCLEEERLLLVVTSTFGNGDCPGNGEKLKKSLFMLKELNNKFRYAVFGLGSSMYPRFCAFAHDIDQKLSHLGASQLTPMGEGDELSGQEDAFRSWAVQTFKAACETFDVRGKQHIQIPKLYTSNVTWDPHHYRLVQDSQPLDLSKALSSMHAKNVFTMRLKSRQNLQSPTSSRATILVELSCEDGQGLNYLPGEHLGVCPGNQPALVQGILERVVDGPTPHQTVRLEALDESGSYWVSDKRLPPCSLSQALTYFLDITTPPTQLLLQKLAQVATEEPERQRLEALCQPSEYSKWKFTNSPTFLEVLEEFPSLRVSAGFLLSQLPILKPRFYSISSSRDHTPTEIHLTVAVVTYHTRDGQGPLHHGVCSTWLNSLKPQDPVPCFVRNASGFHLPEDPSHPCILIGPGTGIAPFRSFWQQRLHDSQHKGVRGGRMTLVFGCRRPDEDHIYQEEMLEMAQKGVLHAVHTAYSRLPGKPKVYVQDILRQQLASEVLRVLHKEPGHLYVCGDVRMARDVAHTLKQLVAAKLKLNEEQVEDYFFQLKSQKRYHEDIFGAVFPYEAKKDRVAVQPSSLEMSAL

Compound: COC(=O)N1CCN(c2ccnc(-n3ccnc3)n2)C(CC(=O)NCc2ccc3c(c2)OCO3)C1 (stereo not drawn)
Ki [1]: 2.2 nM
ED50 [2]: 1.2 mg/kg
IC50 [3]: 0.6 nM

IC50 [4]: < 10000 nM
Compound: CCCCCCOc1ccc(CCOc2cc(OCCCN)ccc2C(=O)NC(c2ccccc2)c2ccccc2)cc1

Compound: CCSCCCCC(c1ccc(O)cc1)C(C)(CC)c1ccc(O)cc1 (stereo not drawn)
IC50 [5]: ~9000 nM
Cell death [6]: >90%

IC50 [7]: 50 nM
Blockade [8]: 50%
Compound: NC(=O)C[C@H](NC(=O)C1(NC(=O)[C@H](Cc2ccc(C(C(=O)O)C(=O)O)cc2)NC(=O)C(=O)O)CCCCC1)C(=O)NCCCc1ccc2ccccc2c1

IC50 [9]: 9 nM
Compound: CCc1cc(-c2ccc(OCC(=O)O)cc2C(C)C)ccc1-c1cccc(Cc2cccc3ccccc23)c1

Compound: Cc1ccc(-c2ccc3c(c2)C=C(C(=O)Nc2ccc(C[N+](C)(C)C4CCOCC4)cc2)CCC3)cc1
IC50 [10]: 1.4 nM

IC50 [12]: 5880 nM
IC50 [13]: 3720 nM
Compound: O=C1c2cccc3cc([N+](=O)[O-])cc(c23)C(=O)N1NCCO
IC50 [11]: 3720 nM

Compound: CC(=O)NC(Cc1ccc(P(=O)(O)O)c(P(=O)(O)O)c1)C(=O)N[C@H]1CCCCc2cc(OCC3CCCCC3)c(C(N)=O)cc21 (stereo partly drawn)
IC50 [14]: 300 nM
IC50 [15]: 1600 nM

Compound: CC(=O)N[C@@H](Cc1ccccc1)C(=O)N[C@H]1CCCNC(=O)[C@H](CCCN=C(N)N)NC(=O)[C@H](Cc2c[nH]c3ccccc23)NC(=O)[C@@H](CC2CCCCC2)NC(=O)[C@@H]2CCCN2C1=O
IC50 [16]: 20 nM

IC50 [9]: 20 nM
Compound: CCc1cc(-c2ccc(OCC(=O)O)cc2C(C)C)ccc1-c1cccc(Cc2ccc3ccccc3c2)c1

IC50 [3]: 1.1 nM
Compound: O=C(CC1CNCCN1c1cc(Cl)nc(-n2ccnc2)n1)NCc1ccc2c(c1)OCO2 (stereo not drawn)

IC50 [17]: 60000 nM
IC50 [18]: 5500 nM
IC50 [19]: 42900 nM
Compound: CC(=O)NC(Cc1ccc(C(=O)O)c(C=O)c1)C(=O)N[C@H]1CCCCc2cc(OCC3CCCCC3)c(C(N)=O)cc21 (stereo partly drawn)

IC50 [4]: < 10000 nM
Compound: CCCCCCOc1cccc(CCOc2cc(OCCCN)ccc2C(=O)NC2c3ccccc3-c3ccccc32)c1

Compound: NCCc1ccc(OCCCN=C(N)N)cc1OCCc1ccccc1
IC50 [4]: 770000 nM
